The results in this text go back to ChEMBL document CHEMBL5537117, “Novel 3-hydroxypyridin-4(1H)-One derivatives as ferroptosis inhibitors with iron-chelating and reactive oxygen species scavenging activities and therapeutic effect in cisplatin-induced cytotoxicity” (Eur J Med Chem, 2024).

Each structure is given as a SMILES string. A value given as a limit tells only on which side of the number the result lay.

A short description of series [1]: Antioxidant activity assessed as trolox equivalent of ORAC radical scavenging activity at 4 uM. It counts as functional.
Series [2] is described as follows: Acid dissociation constant, pKa3 of the compound in 0.1M KCl at pH 2.0 to 10.5 by UV absorption method. In kind it is physicochemical.
Series [3] in a line: Acid dissociation constant, pKa1 of the compound in 0.1M KCl at pH 2.0 to 10.5 by UV absorption method. It counts as physicochemical.
A short description of series [4]: Acid dissociation constant, pKa2 of the compound in 0.1M KCl at pH 2.0 to 10.5 by UV absorption method. It counts as physicochemical.
A short description of series [5]: Log K3 of the compound in 0.1M KCl at pH 2.0 to 10.5 by UV absorption method. In kind it is physicochemical.
The nature of series [6]: Antioxidant activity assessed as ABTS radical scavenging activity incubated in dark for 6 mins by absorbance based microplate reader analysis. It counts as functional.
Series [7] in a line: Antioxidant activity assessed as trolox equivalent of ORAC radical scavenging activity at 8 uM. In kind it is functional.
Series [8] in a line: Metal chelating activity assessed as Fe3+ chelation.
Series [9] is described as follows: Log K2 of the compound in 0.1M KCl at pH 2.0 to 10.5 by UV absorption method. In kind it is physicochemical.
Series [10] is described as follows: Log K1 of the compound in 0.1M KCl at pH 0.9 to 2.1 by UV absorption method. It counts as physicochemical.
Series [11] deals with HT-22. The series is described as follows: Cytotoxicity against mouse HT-22 cells assessed as reduction in cell viability at 150 uM by MTT assay relative to control. It counts as toxicity, cell-based. As to conditions: ht-22, 150 µM. In general terms: Tetrazolium assays rely on reduction of a dye to a coloured formazan, in cell work by metabolically active cells.
For series [12], the system named is HT-22. The experiment in a line: Anti-ferroptotic activity in erastin-induced ferroptosis in mouse HT-22 cells assessed as cell viability incubated for 24 hrs by MTT assay. It counts as functional, cell-based. Particulars: HT-22, 24 h.

Consider `Cc1c(O)c(=O)ccn1NC(=O)/C=C/c1ccccc1Cl`, for which the Activity in [1] was 2.67; in [7], 6.46; in series [8], 17.4. The pKa (usually the pH at which an ionisable group is half protonated) came out at 10.2 in series [2], 2.22 in series [3] and 6.96 in [4]. Besides, the “log(activity)” value in series [5] is 35.29; in [9], 26.11; in [10], 14.03. The IC50 (in general, the point on the concentration scale where inhibition reaches its midpoint) in [6] worked out at 5.14 µM.
For the molecule `COc1ccc(/C=C/C(=O)Nn2ccc(=O)c(O)c2C)c(OC)c1OC`, the Activity in series [1] was 8.52; in [7], 14.8; in series [8], 17; in the series with HT-22 [11] it was > 80%. In addition, the pKa is 10.2 in series [2], 2.1 in series [3] and 7.29 in series [4]. For the same molecule, the “log(activity)” value in series [5] amounted to 35; in series [9], 25.73; in series [10] it was 13.72. In addition, in series [6], the IC50 was 6.99 µM. The EC50 (usually the concentration at which the effect is half-maximal) in the series with HT-22 [12] turned out to be 19.6 µM.
Take `Cc1c(O)c(=O)ccn1NC(=O)/C=C/c1c(F)cccc1F`: the Activity came to 2.45 in series [1], 5.03 in [7] and 17.4 in series [8]. For the same molecule, the pKa is 10.2 in series [2], 2.51 in [3] and 6.83 in [4]. Also, the “log(activity)” value in [5] stood at 35.32; in [9] it was 26.25; in series [10], 14.27. The half-inhibitory concentration (IC50) in series [6] was 4.81 µM.
With `COc1ccc(/C=C/C(=O)Nn2ccc(=O)c(O)c2C)c(F)c1`, the values for the Activity in [1] and in series [7] were < 0.1 and 6.01, respectively. Besides, in series [6], the IC50 was > 100 µM.
For the molecule `Cc1c(O)c(=O)ccn1NC(=O)/C=C/c1cc(Cl)ccc1Cl`, the Activity in [1] is 3.06; in series [7], 6.56; in series [8], 17.7. The pKa was 10 in series [2], 2.48 in series [3] and 7.34 in [4]. The “log(activity)” value in series [5] came out at 35.05; in series [9] it was 26.02; in series [10], 14.19. Moreover, the IC50 in [6] is > 100 µM.
Regarding `Cc1c(O)c(=O)ccn1NC(=O)/C=C/c1ccc(C(F)(F)F)cc1`, the Activity in series [1] is < 0.1; in [7] it was 0.61. Besides, the IC50 in series [6] stood at 12 µM.
For `Cc1c(O)c(=O)ccn1NC(=O)/C=C/c1ccc(Cl)cc1`, in that order: < 0.1, < 0.1 and 8.66 µM.
With `Cc1c(O)c(=O)ccn1NC(=O)/C=C/c1ccc(F)cc1F`, the Activity in [1] turned out to be 1.17; in series [7], 2.67; in series [8] it was 17.5. Besides, the figures for the pKa in [2], in series [3] and in series [4] were 10.2, 2.57 and 6.83, respectively. The “log(activity)” value in series [5] was found to be 35.31; in series [9], 26.11; in series [10] it was 14.11. In addition, the IC50 in [6] came out at 7.51 µM.
In the case of `Cc1c(O)c(=O)ccn1NC(=O)/C=C/c1ccccc1`, the Activity in [1] is 6.73; in series [7] it was 11.4; in series [8], 17.9; in the series with HT-22 [11], > 80%. Further, the results for the pKa in [2], in series [3] and in [4] were 10.1, 2.37 and 7.1, respectively. Further, the results for the “log(activity)” value in series [5], in [9] and in [10] were 35.4, 25.88 and 13.61, respectively. Further, the IC50 in series [6] turned out to be 4.8 µM. In addition, in the series with HT-22 [12], the EC50 is 72 µM.
Consider `Cc1cccc(/C=C/C(=O)Nn2ccc(=O)c(O)c2C)c1`, for which the Activity is 0.57 in [1], 2.51 in series [7] and 15.8 in [8]. For the same molecule, the pKa in series [2] amounted to 10.4; in series [3] it was 1.3; in [4], 7.23. For the same molecule, the “log(activity)” value is recorded as 35.55 in [5], 25.95 in [9] and 13.57 in series [10]. Besides, the IC50 in series [6] was determined as 4.91 µM.
With `Cc1cccc(/C=C/C(=O)Nn2ccc(=O)c(O)c2C)c1C`, the figures for the Activity in series [1], in series [7] and in [8] were 7.64, 13.1 and 17.5, respectively. The pKa in series [2] was determined as 10.3; in [3], 2.38; in [4], 7.06. Besides, the “log(activity)” value was found to be 35.67 in [5], 26.22 in series [9] and 14.07 in series [10]. In [6], the IC50 stood at 10.2 µM.
Consider `Cc1ccc(/C=C/C(=O)Nn2ccc(=O)c(O)c2C)cc1`, for which the figures for the Activity in series [1], in series [7] and in [8] were 0.72, 2.89 and 16.8, respectively. Also, the pKa was found to be 10.3 in series [2], 2.25 in series [3] and 7.24 in series [4]. Moreover, the entries for the “log(activity)” value in series [5], in series [9] and in series [10] were 34.5, 26.49 and 13.93, respectively. In series [6], the IC50 turned out to be 4.79 µM.
As for `O=C(O)/C=C/c1ccccc1` [CINNAMIC ACID], the results for the Activity in series [1] and in [7] were 1.27 and 1.13, respectively. Also, the IC50 in [6] is > 100 µM.
Take `COc1cc(F)ccc1/C=C/C(=O)Nn1ccc(=O)c(O)c1C`: the Activity in series [1] was found to be 1.21; in [7] it was 3.83; in series [8] it was 17. Also, the pKa in series [2] amounted to 10.4; in [3], 2.34; in series [4], 7.02. Also, the “log(activity)” value in series [5] is on record as 35.29; in series [9], 26.09; in series [10], 14.06. In addition, the IC50 in [6] is 5.01 µM.
Regarding `Cc1cccc(C)c1/C=C/C(=O)Nn1ccc(=O)c(O)c1C`, the Activity was determined as 2.91 in [1], 5.6 in series [7] and 16.9 in [8]. For the same molecule, the pKa turned out to be 10.3 in [2], 2.06 in [3] and 6.97 in [4]. Besides, the entries for the “log(activity)” value in series [5], in [9] and in [10] were 35.08, 25.8 and 13.71, respectively. Also, in series [6], the IC50 came out at 4.88 µM.
`Cc1c(O)c(=O)ccn1NC(=O)/C=C/c1ccc(F)cc1Cl`: the results for the Activity in series [1], in series [7] and in series [8] were 2.15, 4.78 and 17.6, respectively. Besides, the pKa was 10.2 in series [2], 2.71 in series [3] and 6.7 in series [4]. In addition, the entries for the “log(activity)” value in series [5], in series [9] and in series [10] were 35.55, 26.4 and 14.41, respectively. Moreover, in series [6], the IC50 worked out at 5.01 µM.
With `COc1ccc(/C=C/C(=O)Nn2ccc(=O)c(O)c2C)cc1OC`, the Activity in series [1] is 15.7; in [7], 21.1; in [8] it was 17.3; in the series on HT-22 [11] it was > 80%. The pKa was 10.2 in [2], 2.29 in series [3] and 7.33 in series [4]. Also, the “log(activity)” value in series [5] came out at 35.17; in series [9], 25.87; in series [10], 13.89. For the same molecule, the IC50 in series [6] came to 4.9 µM. Also, the EC50 in the series with HT-22 [12] came out at 33.5 µM.
Take `Cc1ccccc1/C=C/C(=O)Nn1ccc(=O)c(O)c1C`: the Activity in [1] was 0.97; in series [7] it was 3.09; in series [8], 17.6. Also, the pKa in series [2] turned out to be 10.2; in series [3], 2.23; in series [4], 6.98. Besides, the results for the “log(activity)” value in [5], in series [9] and in [10] were 35.43, 25.95 and 13.79, respectively. Further, the IC50 in [6] was 4.68 µM.
For the molecule `COc1ccccc1/C=C/C(=O)Nn1ccc(=O)c(O)c1C`, the Activity in [1] is 8.92; in series [7], 14.6; in series [8], 17.4; with HT-22 [11], > 80%. The figures for the pKa in series [2], in series [3] and in series [4] were 10.3, 2.46 and 7.09, respectively. In addition, the “log(activity)” value is on record as 35.48 in series [5], 26.17 in series [9] and 14.14 in series [10]. Further, the IC50 in series [6] was 4.78 µM. Also, the EC50 in the series with HT-22 [12] is 18.2 µM.
In the case of `O=C(/C=C/c1ccccc1)c1ccccc1` [CHALCONE], in the series on HT-22 [12], the EC50 was > 500 µM.
As for `Cc1c(O)c(=O)ccn1NC(=O)/C=C/c1cccc(Cl)c1F`, the figures for the Activity in series [1] and in series [7] were < 0.1 and 1.24, respectively. In series [6], the IC50 was determined as 21.8 µM.
With `COc1ccc(/C=C/C(=O)Nn2ccc(=O)c(O)c2C)cc1`, the Activity in series [1] is 9.42; in series [7] it was 19.4; in series [8] it was 17.1. Moreover, the pKa in series [2] came out at 10.3; in series [3] it was 2.42; in series [4], 7.41. In addition, the results for the “log(activity)” value in [5], in [9] and in series [10] were 35.52, 26.09 and 14.01, respectively. Further, the IC50 in series [6] was found to be 5.17 µM. In the series on HT-22 [12], the EC50 came out at 28.9 µM.
Take `Cc1c(C)c2c(c(C)c1O)CCC(C)(C(=O)O)O2` (centres undefined) [TROLOX]: in series [6], the IC50 was 15.3 µM.
For the molecule `Oc1ccc(/C=C/c2cc(O)cc(O)c2)cc1` [RESVERATROL], the Activity in series [1] came to 16.7; in series [7] it was 17.6. In addition, the IC50 in series [6] worked out at 5.14 µM.
